Consider 7 molecules from patent US3957785A, “Bβ-Pyrimidino-aminomethyl-10α-ergoline and 10α-methoxyergoline derivatives” (priority 1971, dated 1976).

Series [1] has as its system isolated guinea pig seminal vescicle. The experiment in a line: inhibition of the spasmogen effect caused by adrenaline on isolated guinea pig seminal vescicle (adrenolytic activity in vitro). The arrangement: unit: μg/ml. The settings on record: isolated guinea pig seminal vescicle in physiological solution. As to the method:
The compounds of the present invention have a high and prolonged adrenolytic activity and a low toxicity and are therefore useful in therapy. This adrenolytic activity was tested on several of the present compounds in vitro in comparison with dihydroergotamine on isolated guinea pig seminal vescicle suspended in a physiological solution.
Table 1 reports the values of concentrations, in μg/ml., which are able to produce a 50% inhibition (IC50) of the spasmogen effect caused by adrenaline.

Series [2] deals with lethal effects caused by adrenaline. The experiment in a line: adrenolytic activity in vivo on the rat: reduction of lethal effects caused by adrenaline. Particulars: read-out: ID50 (dose reducing by 50% the lethal effects caused by adrenaline). As to the method:
(§1) The adrenolytic activity of the compounds of the invention was also determined in vivo on the rat in comparison with dihydroergotamine and nicergoline. Table 2 reports the doses in mg/kg (ID50) able to reduce by 50% the lethal effects caused by adrenaline after oral (os) and intravenous (i.v.) administration of these compounds as compared with dihydroergotamine and with nicergoline, i.e., 1,6-dimethyl-8 -(5'-bromonicotinoyloxymethyl)-10 -methoxyergoline (Br. J. Pharmac, 34, 700, 1968).

Series [3] in a line: acute toxicity LD50 in rats. Particulars: rat, in vivo.
Series [4] deals with lethal adrenaline dose. The series is described as follows: percentage of animals protected against lethal adrenaline dose, hours after administration. Format: in vivo, rat. The method, then: as §1
Some of the compounds reported in Table 2 have a long lasting effect of up to 24 hours as shown by the data contained in Table 3.
Percentage of animals protected against lethal adrenaline dose

Series [5] concerns adrenalin. The series is described as follows: submaximal inhibiting dosage protecting 80% of rats against adrenalin injected 8 hours after administration. Format: in vivo. The settings on record: Rattus norvegicus, po, 8 h, read-out: ID (submaximal inhibiting dosage which protects 80% of the tested animals). As to the method:
This greater stability was confirmed by the determination of the submaximal inhibiting dosage which protects 80% of the tested animals (rats) against a single dose of 200 mg/Kg of body weight of adrenalin injected 8 hours after administration of the tested compounds according to the invention.

Like-named read-outs stand apart in the source and are kept apart here. Some results are limits rather than exact numbers.

By LD50 is commonly meant the dose expected to kill half of the subjects tested.

Take `COC12CC(CNc3ncccn3)CN(C)C1Cc1cn(C)c3cccc2c13` (stereo not drawn) [1,6-dimethyl-8β -(2-pyrimidino-aminomethyl)-10α -methoxyergoline]: in series [1], the “TC50 (concentration producing 50% inhibition (IC50) of the spasmogen effect caused by adrenaline)” value amounted to 0.005 μc/ml. The ED50 came out at 0.2 mg/kg in series [2] (iv) and 1 mg/kg in series [2] (po, os). For the same molecule, the LD50 stood at 25 mg/kg in series [3] (iv) and 250 mg/kg in series [3] (po, os).
The like results for `COC12CC(CNc3ncc(Br)cn3)CN(C)C1Cc1cn(C)c3cccc2c13` (stereo not drawn) [1,6-dimethyl-8β -(5-bromo-2-pyrimidino-aminomethyl)-10α -methoxyergoline] were, in that order, 0.005 μc/ml, 0.08 mg/kg, 0.32 mg/kg, 50 mg/kg and 230 mg/kg.
In the case of `Cc1cc(C)nc(NCC2CC3c4cccc5c4c(cn5C)CC3N(C)C2)n1` (stereo not drawn) [1,6-dimethyl-8β(4,6-dimethyl-2-pyrimidino-aminomethyl)-10α -ergoline], the ED50 in series [2] (po, os) is 1.25 mg/kg. Also, the “% survivors” value in series [4] (2.5 mg/Kg per os, 1 hour after administration) came out at 80%; in series [4] (2.5 mg/Kg per os, 2 hours after administration) it was 60%; in series [4] (2.5 mg/Kg per os, 4 hours after administration) it was 30%; in series [4] (5 mg/Kg per os, 1 hour after administration) it was 100%; in series [4] (5 mg/Kg per os, 2 hours after administration) it was 80%; in series [4] (5 mg/Kg per os, 4 hours after administration), 50%. The “% survivors” value was 20% in series [4] (5 mg/Kg per os, 8 hours after administration); 100% in series [4] (10 mg/Kg per os, 1 hour after administration); 100% in series [4] (10 mg/Kg per os, 2 hours after administration); 60% in series [4] (10 mg/Kg per os, 4 hours after administration).
`CN1CC(CNc2ncc(N)cn2)CC2c3cccc4c3c(cn4C)CC21` (stereo not drawn) [1,6-dimethyl-8β-(5-amino-2-pyrimidino-aminomethyl)-10α-ergoline]: the ED50 in series [2] (iv) came to 0.18 mg/kg; in series [2] (po, os), 0.5 mg/kg. Besides, the ED80 in series [5] stood at 1 mg/kg. Also, the LD50 was determined as 18 mg/kg in series [3] (iv) and 140 mg/kg in series [3] (po, os).
On to `CN1CC(CNc2ncc(Cl)cn2)CC2c3cccc4c3c(cn4C)CC21` (stereo not drawn) [1,6-dimethyl-8β-(5-chloro-2-pyrimidino-aminomethyl)-10α -ergoline], for which the ED50 in series [2] (po, os) was 0.14 mg/kg. Also, the ED80 in series [5] stood at 1 mg/kg.
As for `COC12CC(CNc3ncc(C)cn3)CN(C)C1Cc1cn(C)c3cccc2c13` (stereo not drawn) [1,6-dimethyl-8β-(5-methyl-2-pyrimidino-aminomethyl)-10α -methoxyergoline], the “TC50 (concentration producing 50% inhibition (IC50) of the spasmogen effect caused by adrenaline)” value in series [1] stood at 0.001 μc/ml. Also, the ED50 was 0.1 mg/kg in series [2] (iv) and 0.1 mg/kg in series [2] (po, os). In series [3] (iv), the LD50 was 18 mg/kg.
Take `CN1C[C@H](C(=O)N[C@]2(C)O[C@@]3(O)[C@@H]4CCCN4C(=O)[C@H](Cc4ccccc4)N3C2=O)C[C@@H]2c3cccc4[nH]cc(c34)C[C@H]21` [dihydroergotamine, reference compound]: the “TC50 (concentration producing 50% inhibition (IC50) of the spasmogen effect caused by adrenaline)” value in series [1] was found to be 0.015 μc/ml. For the same molecule, the ED50 in series [2] (iv) worked out at 0.08 mg/kg; in series [2] (po, os) it was 15 mg/kg. Moreover, the ED80 in series [5] is over 20 mg/kg.
